From patent publication US5789434A, “Derivatives of substituted 4-biarylbutyric acid as matrix metalloprotease inhibitors” (priority 1995, dated 1998)

Assays:
Format in all cases: biochemical
MMP-9 = molecular target: T1, MMP-9 (Homo sapiens, UniProt P14780); assay: Automated MMP Profiling Assay, MMP-9 fluorogenic; conditions: for IC50: 96-well automated, P218
T1 construct: from tissue; host or cells: human polymorphonuclear leukocytes (PMN) from whole blood (New York Blood Center), PMA-stimulated supernatant
T1 sequence (P14780 107-707 limits assumed): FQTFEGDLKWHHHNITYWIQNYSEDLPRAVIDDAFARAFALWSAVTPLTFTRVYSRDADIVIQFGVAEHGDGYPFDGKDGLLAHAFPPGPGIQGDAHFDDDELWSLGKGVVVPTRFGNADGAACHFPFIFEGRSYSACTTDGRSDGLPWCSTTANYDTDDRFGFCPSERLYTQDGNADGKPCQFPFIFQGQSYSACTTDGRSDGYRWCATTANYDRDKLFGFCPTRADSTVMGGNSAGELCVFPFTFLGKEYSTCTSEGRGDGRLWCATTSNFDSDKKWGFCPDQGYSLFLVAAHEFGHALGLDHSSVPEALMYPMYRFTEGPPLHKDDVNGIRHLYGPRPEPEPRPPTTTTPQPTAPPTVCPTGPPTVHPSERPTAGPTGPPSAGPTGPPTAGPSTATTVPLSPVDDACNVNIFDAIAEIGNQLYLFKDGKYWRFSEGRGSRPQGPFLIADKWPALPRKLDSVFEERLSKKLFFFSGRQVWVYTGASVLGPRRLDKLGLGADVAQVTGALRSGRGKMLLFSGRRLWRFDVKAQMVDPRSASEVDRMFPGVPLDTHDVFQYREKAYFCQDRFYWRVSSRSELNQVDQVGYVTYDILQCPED

MMP-3 = molecular target: T2, MMP-3 (Homo sapiens, UniProt P08254); assay: Automated MMP Profiling Assay, MMP-3 fluorogenic; conditions: for IC50: 96-well automated, P218
T2 construct: Truncated Prostromelysin-257 was expressed in a soluble form in E.coli; made in house; host or cells: E. coli
T2 sequence (P08254 100-274 limits assumed): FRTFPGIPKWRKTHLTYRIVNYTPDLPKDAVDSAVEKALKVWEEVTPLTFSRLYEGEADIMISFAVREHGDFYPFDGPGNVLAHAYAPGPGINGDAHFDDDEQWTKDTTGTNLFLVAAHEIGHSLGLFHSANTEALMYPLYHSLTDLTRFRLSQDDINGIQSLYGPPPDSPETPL
Text: This assay with each invention compound was run with the three enzymes MMP-3, MMP-9 and MMP-2 in parallel as adapted for a 96-well microtitre plate using a Hamilton A® workstation.

MMP-2 = molecular target: T3, MMP-2 (Homo sapiens, UniProt P08253); assay: Automated MMP Profiling Assay, MMP-2 fluorogenic; conditions: for IC50: 96-well automated, P218, read-out: MMP-2 Fluorogenic IC50 (profiling)
T3 sequence (P08253 110-660): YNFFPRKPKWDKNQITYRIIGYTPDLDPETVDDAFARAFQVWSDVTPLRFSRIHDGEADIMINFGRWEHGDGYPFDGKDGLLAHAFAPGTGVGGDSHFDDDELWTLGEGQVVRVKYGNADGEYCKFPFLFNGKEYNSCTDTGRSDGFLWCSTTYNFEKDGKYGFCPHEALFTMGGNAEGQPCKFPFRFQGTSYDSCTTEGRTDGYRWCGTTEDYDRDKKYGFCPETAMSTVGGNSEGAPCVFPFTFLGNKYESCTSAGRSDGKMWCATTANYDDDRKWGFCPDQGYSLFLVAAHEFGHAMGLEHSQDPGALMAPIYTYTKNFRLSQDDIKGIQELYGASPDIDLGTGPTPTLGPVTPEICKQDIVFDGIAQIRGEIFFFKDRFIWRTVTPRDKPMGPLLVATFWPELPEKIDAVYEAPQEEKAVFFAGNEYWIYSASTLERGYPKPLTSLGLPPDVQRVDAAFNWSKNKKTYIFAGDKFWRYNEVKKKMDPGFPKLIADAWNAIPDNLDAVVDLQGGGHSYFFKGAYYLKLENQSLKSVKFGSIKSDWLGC

Structure (SMILES) | inhibition at 5 µM (MMP-9) [%] | inhibition at 5 µM (MMP-3) [%] | IC50 (MMP-2) [nM] | IC50 (MMP-9) [nM] | IC50 (MMP-3) [nM] | inhibition at 5 µM (MMP-2) [%]
O=C(C[C@@H](CCCc1ccccc1)C(=O)O)c1ccc(-c2ccc(OCc3ccccc3)cc2)cc1 [Example 101, 4-[4-(4-benzyloxyphenyl)phenyl]-4-oxo-2R-(3-phenylpropyl)butanoic acid] | 10 | 45 | 3320 |  |  | 
O=C(c1ccc(-c2ccc(Cl)cc2)cc1)[C@H]1CCN(C(=O)CCc2ccccc2)[C@@H]1C(=O)O [Example 169, L-Proline, 3-[(4'-chloro[1,1'-biphenyl]-4-yl)carbonyl]-1-(1-oxo-3-phenylpropyl)-, trans-] |  |  | 80 | 1080 | 245 | 
CCCCCCOc1ccc(-c2ccc(C(=O)C3CCC=C3C(=O)O)cc2)cc1 (stereo not drawn) [Example 443, 1-Cyclopentene-1-carboxylic acid, 5-[[4'-(hexyloxy)[1,1'-biphenyl]-4-yl]carbonyl]-] | 16 | 20 | 4610 |  |  | 
C#Cc1ccc(-c2ccc(C(=O)CC(CCCc3ccccc3)C(=O)O)cc2)cc1 (stereo not drawn) [Example 351, [1,1'-Biphenyl]-4-butanoic acid, 4'-ethynyl-γ-oxo-α-(3-phenylpropyl)-] |  |  | 50 | 151 | 107 | 
O=C(c1ccc(-c2ccc(Cl)cc2)cc1)[C@H]1CCN(C(=O)Cc2ccccc2)[C@@H]1C(=O)O [Example 170, L-Proline, 3-[(4'-chloro[1,1'-biphenyl]-4-yl)carbonyl]-1-(phenylacetyl)-, trans-] |  |  | 103 | 1800 | 296 | 
CCN(CC)C(=O)c1cccc(CC[C@H](CC(=O)c2ccc(-c3ccc(Cl)cc3)cc2)C(=O)O)c1 [Example 146] |  |  | 538 | 2710 | 2400 | 
O=C(O)[C@H]1[C@H](CN2C(=O)c3cccc([N+](=O)[O-])c3C2=O)CC[C@@H]1C(=O)c1ccc(-c2ccc(Cl)cc2)cc1 (relative stereo) [Example 385, Cyclopentanecarboxylic acid, 2-[(4'-chloro[1,1'-biphenyl]-4-yl)carbonyl]-5-[(1,3-dihydro-4-nitro-1,3-dioxo-2H-isoindol-2-yl)methyl]-, (1α,2β,5β)-] |  |  | 4.26 | 1.12 | 4.22 | 
O=C(CC(CCN1C(=O)c2ccc(O)cc2C1=O)C(=O)O)c1ccc(-c2ccc(Cl)cc2)cc1 (stereo not drawn) [Example 420, 2H-Isoindole-2-butanoic acid, α-[2-(4'chloro[1,1'-biphenyl]-4-yl)-2-oxoethyl]-1,3-dihydro-5-hydroxy-1,3-dioxo-] |  |  | 5.1 | 1.7 | 14 | 
CC(=O)O[C@H]1C[C@H](C(=O)c2ccc(-c3ccc(Cl)cc3)cc2)[C@H]1C(=O)O (relative stereo) [Example 395, Cyclobutanecarboxylic acid, 2-(acetyloxy)-4-[(4'-chloro[1,1'-biphenyl]-4-yl)carbonyl]-, (1α,2α,4β)-] | 44 |  | 560 |  | 2200 | 
CCCOc1ccc2c(c1)C(=O)N(CCC(CC(=O)c1ccc(-c3ccc(Cl)cc3)cc1)C(=O)O)C2=O (stereo not drawn) [Example 406, 2H-Isoindole-2-butanoic acid, α-[2-(4'-chloro[1,1'-biphenyl]-4-yl)-2-oxoethyl]-1,3-dihydro-1,3-dioxo-5-propoxy-] |  |  | 17 | 1.7 | 10.3 | 
O=C(OC[C@@H]1CC[C@H](C(=O)c2ccc(-c3ccc(Cl)cc3)cc2)[C@H]1C(=O)O)c1ccccc1 (relative stereo) [Example 367] |  |  | 37 | 38 | 44 | 
O=C(CC(CCCc1ccccc1)C(=O)O)c1ccc(-c2ccc(CCc3ccccc3)cc2)cc1 (stereo not drawn) [Example 359, [1,1'-Biphenyl]-4-butanoic acid, 4'-γ-oxo-4'-(2-phenylethyl)-α-(3-phenylpropyl)-] | 16 |  | 51 |  | 83 | 
O=C(O)C1=CCCC1C(=O)c1ccc(-c2ccc(Cl)cc2)cc1 (stereo not drawn) [Example 439, 1-Cyclopentene-1-carboxylic acid, 5-[(4'-chloro[1,1'-biphenyl]-4-yl)carbonyl]-] | 3 | 0 |  |  |  | 24
O=C(NC[C@@H]1CC[C@H](C(=O)c2ccc(-c3ccc(Cl)cc3)cc2)[C@H]1C(=O)O)OCc1ccccc1 (relative stereo) [Example 377] |  |  | 28 | 44 | 24 | 
O=C(CC(CCN1C(=O)c2cc3c(cc2C1=O)OCO3)C(=O)O)c1ccc(-c2ccc(Cl)cc2)cc1 (stereo not drawn) [Example 419, 6H-1,3-Dioxolo[4,5-.function.]isoindole-6-butanoic acid, α-[2-(4'-chloro[1,1'-biphenyl]-4-yl)-2-oxoethyl]-5,7-dihydro-5,7-dioxo-] |  |  | 31 | 0.85 | 6.7 | 
CCCCNC(=O)c1ccc(CCC(CC(=O)c2ccc(-c3ccc(Cl)cc3)cc2)C(=O)O)cc1 (stereo not drawn) [Example 152, [1,1'-Biphenyl]-4-butanoic acid, α-[2-[4-[(butylamion)carbonyl]phenyl]ethyl]-4'-chloro-γ-oxo-] |  |  | 210 | 597 | 367 | 
O=C(CC(CCCc1ccccc1)C(=O)O)c1ccc(-c2ccc(OCCc3ccccc3)cc2)cc1 (stereo not drawn) [Example 102, [1,1'-Biphenyl]-4-butanoic acid, γ-oxo-4'-(2-phenylethoxy)-α-(3-phenylpropyl)-] |  |  | 25 | 698 | 78 | 
O=C(CC(CCCc1ccccc1)C(=O)O)c1ccc(-c2ccc(OCc3ccccc3)cc2)cc1 (stereo not drawn) [Example 99, 4-[4-(4-benzyloxyphenyl)phenyl]-4-oxo-2-(3-phenylpropyl)butanoic acid] |  |  | 26 | 835 | 36 | 
O=C(O)[C@H]1[C@H](CON2C(=O)c3ccccc3C2=O)CC[C@@H]1C(=O)c1ccc(-c2ccc(Cl)cc2)cc1 (relative stereo) [Example 389, Cyclopentanecarboxylic acid, 2-[(4'-chloro[1,1'-biphenyl]-4-yl)carbonyl]-5-[[(1,3-dihydro-1,3-dioxo-2H-isoindol-2-yl)oxy]methyl]-, (1α,2β,5β)-] |  |  | 6.3 | 23 | 15 | 
O=C(CC(CCN1C(=O)c2ccncc2C1=O)C(=O)O)c1ccc(-c2ccc(Cl)cc2)cc1 (stereo not drawn) [Example 417, 2H-Pyrrolo[3,4-c]pyridine-2-butanoic acid, α-[2-(4'-chloro[1,1'-biphenyl]-4-yl)-2-oxoethyl]-1,3-dihydro-1,3-dioxo-] |  |  | 3.7 | 12 | 32 | 
CCCCCOc1ccc(-c2ccc(C(=O)[C@H]3CC[C@H](Sc4ccccc4)[C@@H]3C(=O)O)cc2)cc1 (relative stereo) [Example 317, Cyclopentanecarboxylic acid, 2-[[4'-(pentyloxy)[1,1'-biphenyl]-4-yl]carbonyl]-5-(phenylthio)-, (1α,2β,5α)-] |  |  | 37 | 808 | 75 | 
COc1ccc(-c2ccc(C(=O)CC(CCc3ccccc3)C(=O)O)cc2)cc1 (stereo not drawn) [Example 154, [1,1'-Biphenyl]-4-butanoic acid, 4'-methoxy-γ-oxo-α-(2-phenylethyl)-] |  |  | 37 | 875 | 470 | 
O=C(CC(CCCc1ccccc1)C(=O)O)c1ccc(-c2ccc(OCc3ccncc3)cc2)cc1 (stereo not drawn) [Example 111, [1,1'-Biphenyl]-4-butanoic acid, γ-oxo-α-(3-phenylpropyl)-4'-(4-pyridinylmethoxy)-] |  |  | 3.9 | 4730 | 18 | 
O=C(CC(CCCc1ccccc1)C(=O)O)c1ccc(-c2ccc(C(=O)O)o2)cc1 (stereo not drawn) [Example 69, 2-Furancarboxylic acid, 5-[4-(3-carboxy-1-oxo-6-phenylhexyl)phenyl]-] | 0 | 0 |  |  |  | 0
COc1ccc(C(=O)OC[C@@H]2CC[C@H](C(=O)c3ccc(-c4ccc(Cl)cc4)cc3)[C@H]2C(=O)O)cc1 (relative stereo) [Example 383, Benzoic acid, 4-methoxy-, [2-carboxy-3-[(4'-chloro[1,1'-biphenyl]-4-yl)carbonyl]cyclopentyl]methyl ester, (1α,2β,3α)-] |  |  | 110 | 53 | 58 | 
O=C(CC(CCSc1ccccc1)C(=O)O)c1ccc(-c2ccc(Cl)cc2)cc1 (stereo not drawn) [Example 426, [1,1'-Biphenyl]-4-butanoic acid, 4'-chloro-γ-oxo-α-[2-(phenylthio)ethyl]-] |  |  | 35 | 417 | 161 | 
COc1cccc2c1C(=O)N(CCC(CC(=O)c1ccc(-c3ccc(Cl)cc3)cc1)C(=O)O)C2=O (stereo not drawn) [Example 423, 2H-Isoindole-2-butanoic acid, α-[2-(4'chloro[1,1'-biphenyl]-4-yl)-2-oxoethyl]-1,3-dihydro-4-methoxy-1,3-dioxo-] |  |  | 15 | 6.1 | 19 | 
